Assay results from patent US20230278997A1, “BICYCLO[1.1.1]PENTANE COMPOUNDS FOR THE TREATMENT AND PROPHYLAXIS OF HEPATITIS B VIRUS INFECTION” (Hoffmann-La Roche Inc., priority 2020, published 2023).
Read-outs that look alike come from different tables or passages of the source.

How the values were obtained:
[1] = test system: primary human hepatocyte (PHH); assay: Cytotoxicity in PHH natural infection assay (Cell Counting Kit-8); type: cell-based; settings: therapeutic index; CC50 by CCK8 in PHH over HBsAg IC50
Experimental: Detailed procedures regarding primary human hepatocyte (PHH) HBV natural infection assay are described as below. One tube of frozen PHH (10 million cells) was thawed in 37° C. water bath and then transferred to 20 mL of PHH thawing medium (Sigma, InVitroGRO HT Medium, Cat. 503319) with gently mixing. The cells were then centrifuged at […] for 5 min, the supernatant was discarded and the tube was refilled with 25 mL of PHH plating medium (Sigma, InVitroGRO CP Medium, Cat. 503317). The tube was shaken very gently to re-suspend all cells, and then 50 μl of cells were transferred to each well of a 384-well collagen I coated plate with appropriate liquid handling equipment, e.g. Integra VIAFLO384 or Agilent Bravo. The cells were then cultured for 24 hours in a cell incubator. For HBV infection, after PHH attachment on the culture plate, the plating medium was removed and replenished with PHH culture medium containing HBV virus. The PHH culture medium was prepared with Dulbecco's Modified Eagle Medium (DMEM)/F12 (1:1 in volume ratio) containing 10% fetal bovine serum (Gibco, Cat.10099141), 5 ng/mL human epidermal growth factor (Gibco, Cat.PHG031 IL), 20 ng/mL dexamethasone (Sigma, Cat.D4902-100 mg), 250 ng/mL human recombinant insulin (Gibco, Cat.41400045) and 100 U/mL penicillin. HBV virus at 200 genome equivalent (GE) per cell with 4% PEG8000 (Sigma, Cat.P1458) containing culture medium were added to the PHH culture medium for infection. The cells were then cultured for 24 hours in cell incubator. Then the cell culture supernatant was removed. The HBV-infected PHH were cultured with sandwich culture method with PHH culture medium containing 1% DMSO and 0.25 mg/mL matrix gel for 72 hours. The supernatant was then refreshed with PHH culture medium containing different concentrations of testing compounds for two times with 72-hour interval. At the end of treatment, the supernatant was collected for viral markers measurements, including HBsAg, HBeAg, HBV DNA and cytotoxicity. HBsAg and HBeAg were detected using alphalisa method using their specific antibodies. For HBV DNA detection, HBV DNA Quantitative Fluorescence Diagnostic Kit (Sansure Biotech Inc.) was used following the manufacture's protocol. Cytotoxicity was determined using Cell Counting Kit-8 (CCK8, Dojindo Molecular Technologies, Inc.).

[2] = Human microsome stability assay; type: in vitro ADME; settings: 1 μM compound, 0.5 mg/mL microsomal protein, 37° C.; detection limit 6.15 mL/min/kg
Experimental: Human Microsome Stability Assay The human microsomal stability assay is used for early assessment of metabolic stability of a test compound in human liver microsomes. Human liver microsomes (Cat. […] The reactions were initiated by adding NADPH regenerating system. […] Following precipitation and centrifugation, the amount of compound remaining in the samples were determined by LC-MS/MS. Controls of no NADPH regenerating system at zero and 30 minutes were also prepared and analyzed.

HBsAg = assay: microbe, parasite or virus in culture; type: cell-based, HBV; settings: Hepatitis B virus, read-out: HBsAg IC50
HBeAg = assay: microbe, parasite or virus in culture; type: cell-based, HBV; settings: Hepatitis B virus, read-out: HBeAg IC50
[3] = Single dose pharmacokinetics (PK) study in male C57BL/6 mouse; type: in vivo; settings: for clearance / half-life / Vd / AUC(0-t): male; for clearance / half-life / Vd: C57BL/6, plasma; for clearance / half-life / Vd / F: mouse; for Vd: read-out: VSS; for AUC(0-t): C57BL/6, mouse plasma; for F: dose normalized AUC0-last
Experimental: Single Dose Pharmacokinetics (PK) Study in Male C57BL/6 Mouse Pharmacokinetic properties of selected compounds were assessed by single dose PK studies in Male C57BL/6 mouse (vendor: Beijing Vital River Laboratory Animal Technology Co., Ltd). Briefly, two groups of animals were administered a single dose of respective compound intravenously (IV, bolus) at 1 mg/kg or orally (PO, by gavage) at 10 mg/kg or 30 mg/kg. […] After centrifugation, the resulting plasma was transferred to clean tubes for bioanalysis with LC/MS/MS. The pharmacokinetic parameters were calculated using non-compartmental analysis. The volume of distribution (Vss), half-life (T1/2) and clearance (CL) were obtained based on the plasma concentration-time curve after IV dose. The peak concentration (Cmax) was recorded directly from experimental observations after PO dose. The area under the plasma concentration-time curve (AUC0-last and AUC0-24 h) was calculated using the linear trapezoidal rule up to the last detectable concentration. The bioavailability (F) was calculated based on the dose normalized AUC0-last after IV and PO dose. The Vss of a drug represents the degree to which a drug is distributed in body tissue rather than the plasma. Vss is directly proportional with the amount of drug distributed into tissue. A higher Vss indicates a greater amount of tissue distribution.

[4] = as above; type: in vivo; settings: IV dose 0.4 mg/kg
[5] = IV bolus 1 mg/kg, read-out: IV AUC0-24h
[6] = PO 30 mg/kg single dose, read-out: PO AUC0-24h
[7] = PO 10 mg/kg single dose, read-out: PO AUC0-24h

SMILES | TI (CC50/IC50 HBsAg) [1] | Clearance of human microsome [2] [mL/min/kg] | IC50 (HBsAg) [nM] | IC50 (HBeAg) [nM] | clearance ([3]; IV bolus 1 mg/kg) [mL/min/kg] | half-life ([3]; IV bolus 1 mg/kg) [h] | Vd ([3]; IV bolus 1 mg/kg) [L/kg] | AUC(0-t) [3, 5] [µg·h/mL] | AUC(0-t) [3, 6] [µg·h/mL] | F ([3]; PO 30 mg/kg vs IV) [%] | AUC(0-t) ([4]; C57BL/6, mouse plasma, AUC value is dose-normalized, read-out: IV AUC0-24h) [µg·h/mL] | clearance ([4]; C57BL/6, plasma, mouse) [mL/min/kg] | half-life ([4]; C57BL/6, plasma, mouse) [h] | Vd ([4]; C57BL/6, plasma, mouse, read-out: VSS) [L/kg] | AUC(0-t) [3, 7] [µg·h/mL] | F ([3]; PO 10 mg/kg vs IV 1 mg/kg) [%]
CS(=O)(=O)C1(c2ccc(C(=O)NC34CC(c5nc(-c6ccc(Cl)cc6)cs5)(C3)C4)o2)CC1 [Example 1, N-[3-[4-(4-chlorophenyl)thiazol-2-yl]-1-bicyclo[1.1.1]pentanyl]-5-(1-methylsulfonylcyclopropyl)furan-2-carboxamide] | 27.88 | ≤6.15 | 160 | 120 | 0.2 | 23.6 | 0.4 | 42.7 | 1310 | 102 |  |  |  |  |  | 
CS(=O)(=O)C1(c2ccc(C(=O)NC34CC(c5cnn(-c6ccc(Cl)cc6)n5)(C3)C4)o2)CC1 [Example 30, N-[3-[2-(4-chlorophenyl)triazol-4-yl]-1-bicyclo[1.1.1]pentanyl]-5-(1-methylsulfonylcyclopropyl)furan-2-carboxamide] | 148.67 | ≤6.15 | 60 | 40 | 0.19 | 48.4 | 0.74 | 27 | 370 | 46 |  |  |  |  |  | 
CS(=O)(=O)C1(c2ccc(C(=O)NC34CC(c5nc(-c6ccc(Cl)cc6)no5)(C3)C4)o2)CC1 [Example 32, N-[3-[3-(4-chlorophenyl)-1,2,4-oxadiazol-5-yl]-1-bicyclo[1.1.1]pentanyl]-5-(1-methylsulfonylcyclopropyl)furan-2-carboxamide] | 112.00 | ≤6.15 | 40 | 40 | 0.43 | 17.8 | 0.64 | 24.1 | 249 | 35 |  |  |  |  |  | 
CS(=O)(=O)C1(c2nsc(C(=O)NC34CC(c5nc(-c6ccc(Cl)cc6)no5)(C3)C4)n2)CC1 [Example 34, N-[3-[3-(4-chlorophenyl)-1,2,4-oxadiazol-5-yl]-1-bicyclo[1.1.1]pentanyl]-3-(1-methylsulfonylcyclopropyl)-1,2,4-thiadiazole-5-carboxamide] | 181.50 | ≤6.15 | 20 | 20 |  |  |  |  | 270 | 39 | 24.2 | 0.03 | > 40 | 0.93 |  | 
CS(=O)(=O)C1(c2ccc(C(=O)NC34CC(c5noc(-c6ccc(Cl)cc6)n5)(C3)C4)o2)CC1 [Example 40, N-[3-[5-(4-chlorophenyl)-1,2,4-oxadiazol-3-yl]-1-bicyclo[1.1.1]pentanyl]-5-(1-methylsulfonylcyclopropyl)furan-2-carboxamide] | 46.00 | ≤6.15 | 140 | 100 | 0.85 | 12 | 0.83 | 14.9 | 80.8 | 18 |  |  |  |  |  | 
CS(=O)(=O)C1(c2nsc(C(=O)NC34CC(c5noc(-c6ccc(Cl)cc6)n5)(C3)C4)n2)CC1 [Example 41, N-[3-[5-(4-chlorophenyl)-1,2,4-oxadiazol-3-yl]-1-bicyclo[1.1.1]pentanyl]-3-(1-methylsulfonylcyclopropyl)-1,2,4-thiadiazole-5-carboxamide] | 65.54 | 14.14 | 130 | 80 | 0.11 | 67.3 | 0.62 | 34 |  |  |  |  |  |  | 59.7 | 18
CS(=O)(=O)C1(c2ccc(C(=O)NC34CC(c5ccnc(-c6ccc(Cl)cc6)n5)(C3)C4)o2)CC1 [Example 47, N-[3-[2-(4-chlorophenyl)pyrimidin-4-yl]-1-bicyclo[1.1.1]pentanyl]-5-(1-methylsulfonylcyclopropyl)furan-2-carboxamide] | 59.67 | ≤6.15 | 150 | 140 |  |  |  |  |  |  |  |  |  |  |  | 
CS(=O)(=O)C1(c2nsc(C(=O)NC34CC(c5ccnc(-c6ccc(Cl)cc6)n5)(C3)C4)n2)CC1 [Example 48, N-[3-[2-(4-chlorophenyl)pyrimidin-4-yl]-1-bicyclo[1.1.1]pentanyl]-3-(1-methylsulfonylcyclopropyl)-1,2,4-thiadiazole-5-carboxamide] | 127.43 | 10.71 | 70 | 70 | 0.07 | 53.7 | 0.29 | 70.2 |  |  |  |  |  |  | 629 | 92
CS(=O)(=O)C1(c2nsc(C(=O)NC34CC(c5cnn(-c6ccc(Cl)cc6)n5)(C3)C4)n2)CC1 [Example 60, N-[3-[2-(4-chlorophenyl)triazol-4-yl]-1-bicyclo[1.1.1]pentanyl]-3-(1-methylsulfonylcyclopropyl)-1,2,4-thiadiazole-5-carboxamide] | 261.76 | ≤6.15 | 17 | 17 | 0.1 | 62.4 | 0.55 | 38.1 | 154 | 14 |  |  |  |  |  | 
